Experimental findings from paper PMC7181280, “Synthesis, Structure and In Vitro Anti-Trypanosomal Activity of Non-Toxic Arylpyrrole-Based Chalcone Derivatives” (Molecules, 2020) are described below.

Structures are written as SMILES. Read-outs that look alike come from different tables or passages of the source. Some results are limits rather than exact numbers.

Series [1] is described as follows: In vitro cytotoxicity assay, HeLa cells (resazurin cell viability). The format is cell-based. The following applies: human. Here is the method:
(§1) A single concentration (20 µM) cytotoxicity evaluation of all compounds was conducted in duplicates using a human cervix adenocarcinoma (HeLa) cell line, with emetine (EMT) included as a reference drug and cell viability relative to untreated cells assessed using resazurin. […] The anti-trypanosomal activity of prepared compounds against nagana T. b. brucei (the subspecies responsible for African trypanosomiasis in cattle) parasite cultures were determined using the T. b. brucei 427 strain. Pentamidine (PMD), which is an existing drug for the treatment of trypanosomiasis, was included as a positive control drug. The trypanocidal activity of each compound was initially assessed at a fixed concentration of 20 μM, using resazurin as a read-out of cell viability after compound exposure. […] From Table 1, the structural modification was initially performed on the arylpyrrole moiety (ring B) of the chalcones, while keeping the ring A unchanged. […] Introduction of the fluorine, highly electronegative atom, at the para-position (10b) appeared to enhance the activity against T. b. brucei; however, the activity diminished when the fluorine was replaced by chlorine (10c).
HeLa cells (Cellonex, Johannesburg, South Africa) seeded in 96-well plates were incubated with 20 µM test compounds and cell viability assessed with resazurin, as previously described. Fluorescence readings (excitation 560 nm, emission 590 nm) obtained for the individual wells were converted to % cell viability relative to the average readings obtained from untreated control wells. Plots of % cell viability vs. log[compound] were used to determine IC50 values by non-linear regression using GraphPad Prism (v. 5.02).

Series [2] has as its system Trypanosoma brucei brucei 427 trypomastigotes. Nature of the series: In vitro antitrypanosomal assay (resazurin parasite viability). Type of series: cell-based. The settings on record: T. b. brucei 427 strain; for IC50: Trypanosoma brucei. As to the method:
as §1
Trypanosoma brucei brucei 427 trypomastigotes were cultured in Iscove’s Modified Dulbecco’s medium (IMDM, Lonza, Basel Switzerland) and supplemented with 10% fetal calf serum, HMI-9 supplement, hypoxanthine and penicillin/streptomycin at 37 °C in a 5% CO2 incubator. Serial dilutions of test compounds were incubated with the parasites in 96-well plates for 24 h, and residual parasite viability in the wells determined by adding 20 µL resazurin toxicology reagent (Sigma-Aldrich) and incubating for an additional 24 h. Reduction of resazurin to resorufin by viable parasites was assessed by fluorescence readings (excitation 560 nm, emission 590 nm) in a Spectramax M3 plate reader (Molecular Devices, San Jose, CA, USA). Fluorescence readings were converted to % parasite viability relative to the average readings obtained from untreated control wells. IC50 values were determined by plotting % viability vs. log[compound] and performing non-linear regression using GraphPad Prism (v. 5.02) software.
(The colour change of resazurin is a common sign of viable cells or microbes.)

[3] abbreviates: 48 h, 24 h compound incubation + 24 h resazurin, na = not active (cell viability ≥50% in preliminary single point assay at 20 μM), read-out: T. b. brucei IC50.
[4] abbreviates: 24 h compound incubation + 24 h resazurin, na = not active (cell viability ≥50% in preliminary single point assay at 20 μM).

On to `Cc1cc(/C=C/C(=O)c2cc(Br)ccc2O)c(C)n1-c1ccccc1` [Compound 10a, (E)-1-(5-Bromo-2-hydroxyphenyl)-3-(2,5-dimethyl-1-phenyl-1H-pyrrol-3-yl)prop-2-en-1-one], for which the viability at 20 µM in series [1] was above 100%. Besides, the IC50 in series [2] (setting [3]) was found to be 11.5 µM.

`Cc1cc(/C=C/C(=O)c2cc(Br)ccc2O)c(C)n1-c1ccc(F)cc1` [Compound 10b, (E)-1-(5-Bromo-2-hydroxyphenyl)-3-(1-(4-fluorophenyl)-2,5-dimethyl-1H-pyrrol-3-yl)prop-2-en-1-one]: the viability at 20 µM in series [1] was above 100%. Besides, in series [2] (setting [3]), the IC50 stood at 6.9 µM.

Take `Cc1cc(/C=C/C(=O)c2cc(Br)ccc2O)c(C)n1-c1ccc(Cl)cc1` [Compound 10c, (E)-1-(5-Bromo-2-hydroxyphenyl)-3-(1-(4-chlorophenyl)-2,5-dimethyl-1H-pyrrol-3-yl)prop-2-en-1-one]: the viability at 20 µM in series [1] was above 100%. In series [2] (setting [3]), the IC50 stood at 40 µM.

As for `Cc1cc(/C=C/C(=O)c2cc(Br)ccc2O)c(C)n1-c1ccc(Br)cc1` [Compound 10d, (E)-1-(5-Bromo-2-hydroxyphenyl)-3-(1-(4-bromophenyl)-2,5-dimethyl-1H-pyrrol-3-yl)prop-2-en-1-one], in series [1], the viability at 20 µM is above 100%. For the same compound, in series [2] (setting [3]), the IC50 was 10.5 µM.

`Cc1cc(/C=C/C(=O)c2cc(Br)ccc2O)c(C)n1-c1cccc(C(F)(F)F)c1` [Compound 10e, (E)-1-(5-Bromo-2-hydroxyphenyl)-3-(2,5-dimethyl-1-(3-(trifluoromethyl)phenyl)-1H-pyrrol-3-yl)prop-2-en-1-one]: the viability at 20 µM in series [1] was above 100%. In addition, the IC50 in series [2] (setting [3]) was determined as 4.09 µM.

`Cc1cc(/C=C/C(=O)c2cc(Br)ccc2O)c(C)n1-c1ccc(C(F)(F)F)cc1` [Compound 10f, (E)-1-(5-Bromo-2-hydroxyphenyl)-3-(2,5-dimethyl-1-(4-(trifluoromethyl)phenyl)-1H-pyrrol-3-yl)prop-2-en-1-one]: in series [1], the viability at 20 µM is above 100%. The IC50 in series [2] (setting [3]) was 11.4 µM.

On to `Cc1cc(/C=C/C(=O)c2cc(Br)ccc2O)c(C)n1-c1ccccc1C(F)(F)F` [Compound 10g, (E)-1-(5-Bromo-2-hydroxyphenyl)-3-(2,5-dimethyl-1-(2-(trifluoromethyl)phenyl)-1H-pyrrol-3-yl)prop-2-en-1-one], for which the viability at 20 µM in series [1] is above 100%. In series [2] (setting [3]), the IC50 came out at 10 µM.

As for `Cc1cc(/C=C/C(=O)c2cc(Br)ccc2O)c(C)n1-c1ccc([N+](=O)[O-])cc1` [Compound 10h, (E)-1-(5-Bromo-2-hydroxyphenyl)-3-(2,5-dimethyl-1-(4-nitrophenyl)-1H-pyrrol-3-yl)prop-2-en-1-one], the viability at 20 µM in series [1] is above 100%. Besides, the IC50 in series [2] (setting [3]) is below 6 µM.

In the case of `Cc1cc(/C=C/C(=O)c2cc(Br)ccc2O)c(C)n1-c1cccc([N+](=O)[O-])c1` [Compound 10i, (E)-1-(5-bromo-2-hydroxyphenyl)-3-(2,5-dimethyl-1-(3-nitrophenyl)-1H-pyrrol-3-yl)prop-2-en-1-one], the viability at 20 µM in series [1] amounted to 51.2%. The IC50 in series [2] (setting [3]) was below 10 µM.

Regarding `COc1ccc(-n2c(C)cc(/C=C/C(=O)c3cc(Br)ccc3O)c2C)cc1` [Compound 10j, (E)-1-(5-Bromo-2-hydroxyphenyl)-3-(1-(4-methoxyphenyl)-2,5-dimethyl-1H-pyrrol-3-yl)prop-2-en-1-one], the viability at 20 µM in series [1] is above 100%. Also, the “T. b. brucei IC50” value in series [2] (setting [4]) is on record as “no activity”.

With `Cc1cc(/C=C/C(=O)c2cc(Br)ccc2O)c(C)[nH]1` [Compound 10k, (E)-1-(5-Bromo-2-hydroxyphenyl)-3-(2,5-dimethyl-1H-pyrrol-3-yl)prop-2-en-1-one], in series [1], the viability at 20 µM was above 100%. Further, the “T. b. brucei IC50” value in series [2] (setting [4]) is “complete loss of activity”.

Regarding `Cc1cc(/C=C/C(=O)c2cc(Br)ccc2O)c(C)n1C1CCCCC1` [Compound 10l, (E)-1-(5-Bromo-2-hydroxyphenyl)-3-(1-cyclohexyl-2,5-dimethyl-1H-pyrrol-3-yl)prop-2-en-1-one], in series [1], the viability at 20 µM amounted to 99.2%. The IC50 in series [2] (setting [3]) is 11.5 µM.

Turning to `O=C(/C=C/c1c[nH]cn1)c1cc(Br)ccc1O` [Compound 11a, (E)-1-(5-Bromo-2-hydroxyphenyl)-3-(1H-imidazol-4-yl)prop-2-en-1-one], the viability at 20 µM in series [1] is 78.1%. For the same compound, the “T. b. brucei IC50” value in series [2] (setting [4]) was “no activity”.

`COc1ccc2nc(Cl)c(/C=C/C(=O)c3cc(Br)ccc3O)cc2c1` [Compound 11b]: the viability at 20 µM in series [1] was found to be 99.3%. The IC50 in series [2] (setting [3]) is 9.1 µM.

Turning to `Cc1cc(/C=C/C(=O)c2ccccc2)c(C)n1-c1ccc([N+](=O)[O-])cc1` [Compound 12, (E)-3-(2,5-Dimethyl-1-(4-nitrophenyl)-1H-pyrrol-3-yl)-1-phenylprop-2-en-1-one], the melting point lay in the range of 169 to 174 °C. Also, the viability at 20 µM in series [1] was 84.7%.

The compound `Cc1ccc(C(=O)/C=C/c2cc(C)n(-c3ccc([N+](=O)[O-])cc3)c2C)cc1` [Compound 13, (E)-3-(2,5-Dimethyl-1-(4-nitrophenyl)-1H-pyrrol-3-yl)-1-(p-tolyl)prop-2-en-1-one] displayed a melting point of 172 to 173 °C. In addition, the viability at 20 µM in series [1] was above 100%. The IC50 in series [2] (setting [3]) amounted to 44.3 µM.

`Cc1cc(/C=C/C(=O)c2ccc(F)cc2)c(C)n1-c1ccc([N+](=O)[O-])cc1` [Compound 14, (E)-3-(2,5-Dimethyl-1-(4-nitrophenyl)-1H-pyrrol-3-yl)-1-(4-fluorophenyl)prop-2-en-1-one] displayed a melting point of 160 to 164 °C. The viability at 20 µM in series [1] was 99.4%. The IC50 in series [2] (setting [3]) is 36.5 µM.

Compound `COc1ccc(C(=O)/C=C/c2cc(C)n(-c3ccc([N+](=O)[O-])cc3)c2C)cc1` [Compound 15, (E)-3-(2,5-Dimethyl-1-(4-nitrophenyl)-1H-pyrrol-3-yl)-1-(4-methoxyphenyl)prop-2-en-1-one] registered a melting point of 157 to 158 °C. Further, the viability at 20 µM in series [1] stood at 98.9%. In series [2] (setting [3]), the IC50 turned out to be 12.3 µM.

For the compound `COc1ccc(C(=O)/C=C/c2cc(C)n(-c3ccc([N+](=O)[O-])cc3)c2C)c(OC)c1` [Compound 16, (E)-1-(2,4-Dimethoxyphenyl)-3-(2,5-dimethyl-1-(4-nitrophenyl)-1H-pyrrol-3-yl)prop-2-en-1-one], in series [1], the viability at 20 µM is above 100%. Further, the IC50 in series [2] (setting [3]) worked out at 10.6 µM.

`Cc1cc(/C=C/C(=O)c2ccc([N+](=O)[O-])cc2)c(C)n1-c1ccc([N+](=O)[O-])cc1` [Compound 17, (E)-3-(2,5-Dimethyl-1-(4-nitrophenyl)-1H-pyrrol-3-yl)-1-(4-nitrophenyl)prop-2-en-1-one]: the melting point was in the range of 175 to 178 °C. Moreover, the viability at 20 µM in series [1] (single concentration 20 µM, duplicates, relative to untreated cells, read-out: HeLa %Viability (residual percentage viability)) is above 100%.

On to `Cc1cc(/C=C/C(=O)c2cc(Cl)ccc2O)c(C)n1-c1cccc(C(F)(F)F)c1` [Compound 18, (E)-1-(5-Chloro-2-hydroxyphenyl)-3-(2,5-dimethyl-1-(3-(trifluoromethyl)phenyl)-1H-pyrrol-3-yl)prop-2-en-1-one], for which the viability at 20 µM in series [1] is 79.9%. The IC50 in series [2] (setting [3]) is 9.3 µM.

For the compound `Cc1cc(/C=C/C(=O)c2cc(Cl)ccc2O)c(C)n1-c1cccc([N+](=O)[O-])c1` [Compound 19, (E)-1-(5-Chloro-2-hydroxyphenyl)-3-(2,5-dimethyl-1-(3-nitrophenyl)-1H-pyrrol-3-yl)prop-2-en-1-one], in series [1], the viability at 20 µM is 81.2%. Further, the IC50 in series [2] (setting [3]) came to 11.7 µM.

For `CC[C@H]1CN2CCc3cc(OC)c(OC)cc3[C@@H]2C[C@@H]1C[C@H]1NCCc2cc(OC)c(OC)cc21` [EMT, emetine, reference compound], the IC50 in series [1] (HeLa cells, resazurin, read-out: HeLa cytotoxicity of reference drug (printed in the %Viability column with unit μM)) is 0.76 µM.

For `N=C(N)c1ccc(OCCCCCOc2ccc(C(=N)N)cc2)cc1` [PMD, Pentamidine, reference compound], in series [2] (read-out: T. b. brucei IC50 (positive control drug)), the IC50 was 0.00068 µM.

As a reminder, the viability is the share of living cells, or the viability signal relative to a control. One may read the melting point as the temperature, or range, at which the solid turns liquid.
